Measurements from patent US12398154B2, “Azaquinazoline pan-KRas inhibitors” (Mirati Therapeutics, Inc., priority 2020, dated 2025).

Experiments:
KRas G12A = KRas G12A (Homo sapiens, UniProt P01116, G12A); experiment: biochemical;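 also: binding to KRas measured by TR-FRET displacement after one hour at room temperature, IC50 from a four-parameter fit of percent-of-control values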
Description: (§1) The ability of a compound to bind to KRas was measured using a TR-FRET displacement assay. […] After a 60-minute incubation at room temperature, the reaction was measured using a BMG LABTECH CLARIO star Plus via TR-FRET. […] The POC values were fit to a 4-parameter IC50 equation and the IC50 value reported.

pERK in ASPC1 cells = experiment: Inhibition of KRas phosphorylation of ERK (Cisbio HTRF pERK assay); settings: Homo sapiens, ASPC1, read-out: Inhibition (HTRF IC50) of KRas-mediated Phosphorylation of ERK, AsPC-1
KRas G12V = KRas G12V (Homo sapiens, UniProt P01116, G12V); experiment: biochemical;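 also: KRas binding measured by TR-FRET displacement at room temperature, IC50 fitted from percent of control values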
Sequence of KRas G12V (P01116 1-169 isoform P01116-2 G12V): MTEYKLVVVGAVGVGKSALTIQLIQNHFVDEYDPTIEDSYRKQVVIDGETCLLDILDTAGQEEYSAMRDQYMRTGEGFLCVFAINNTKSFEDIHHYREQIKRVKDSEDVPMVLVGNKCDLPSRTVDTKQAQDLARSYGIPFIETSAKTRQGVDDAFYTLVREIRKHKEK
Description: as §1

KRas G12R = KRas G12R (Homo sapiens, UniProt P01116, G12R); experiment: biochemical;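 also: TR-FRET displacement assay of compound binding to KRas, read after one hour at room temperature, potency from a four-parameter fit of percent-of-control values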
Sequence of KRas G12R (P01116 1-169 isoform P01116-2 G12R): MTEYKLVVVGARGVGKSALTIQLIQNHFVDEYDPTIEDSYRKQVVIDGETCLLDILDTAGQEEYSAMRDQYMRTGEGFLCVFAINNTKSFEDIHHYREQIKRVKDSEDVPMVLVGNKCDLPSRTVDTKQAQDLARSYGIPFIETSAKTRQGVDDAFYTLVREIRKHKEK
Description: as §1

pERK in MKN1 cells = experiment: Inhibition of KRas phosphorylation of ERK (Cisbio HTRF pERK assay); settings: Homo sapiens, MKN-1, 3 h, read-out: Inhibition (HTRF IC50) of KRas-mediated Phosphorylation of ERK, MKN1
KRas WT = KRas WT (Homo sapiens, UniProt P01116); experiment: biochemical;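 also: binding to KRas read as TR-FRET displacement after a one-hour room-temperature incubation, IC50 derived from percent-of-control values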
Sequence of KRas WT (P01116 1-169 isoform P01116-2): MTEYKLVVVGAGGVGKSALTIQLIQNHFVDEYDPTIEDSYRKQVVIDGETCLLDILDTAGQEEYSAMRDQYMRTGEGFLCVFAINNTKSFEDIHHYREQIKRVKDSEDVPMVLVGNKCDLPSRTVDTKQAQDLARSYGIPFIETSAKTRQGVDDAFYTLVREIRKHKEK
Description: as §1

KRas G12D = KRas G12D (Homo sapiens, UniProt P01116, G12D); experiment: biochemical;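 also: TR-FRET displacement binding assay on KRas, read after a one-hour incubation at room temperature, IC50 fitted from percent-of-control values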
Sequence of KRas G12D (P01116 1-169 isoform P01116-2 G12D): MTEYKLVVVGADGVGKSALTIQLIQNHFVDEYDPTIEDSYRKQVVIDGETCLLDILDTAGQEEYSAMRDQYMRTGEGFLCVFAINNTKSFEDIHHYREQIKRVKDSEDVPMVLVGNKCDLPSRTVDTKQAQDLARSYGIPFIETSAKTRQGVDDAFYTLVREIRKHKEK
Description: as §1

KRas G12C = KRas G12C (Homo sapiens, UniProt P01116, G12C); experiment: biochemical;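 also: binding to KRas assessed by TR-FRET displacement after one hour incubation at room temperature, potency fitted from percent-of-control values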
Sequence of KRas G12C (P01116 1-169 isoform P01116-2 G12C): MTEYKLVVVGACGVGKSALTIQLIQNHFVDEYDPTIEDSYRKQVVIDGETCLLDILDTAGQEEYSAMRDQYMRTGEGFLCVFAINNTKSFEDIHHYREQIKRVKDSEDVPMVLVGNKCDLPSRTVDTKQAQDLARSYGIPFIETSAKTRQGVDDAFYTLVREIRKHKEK
Description: as §1

pERK in HCT116 cells = experiment: Inhibition of KRas phosphorylation of ERK (Cisbio HTRF pERK assay); settings: Homo sapiens, HCT-116, read-out: Inhibition (HTRF IC50) of KRas-mediated Phosphorylation of ERK, HCT116
pERK in PSN1 cells = experiment: as above; settings: Homo sapiens, PSN1, 3 h, read-out: Inhibition (HTRF IC50) of KRas-mediated Phosphorylation of ERK, PSN1
pERK in H358 cells = experiment: as above; settings: Homo sapiens, NCI-H358, read-out: Inhibition (HTRF IC50) of KRas-mediated Phosphorylation of ERK, H358
pERK in H727 cells = experiment: as above; settings: Homo sapiens, NCI-H727, read-out: Inhibition (HTRF IC50) of KRas-mediated Phosphorylation of ERK, H727
Description: (§2) To harvest cells from flask using 0.05% Trypsin/EDTA solution. Add 10 mL of media to stop trypsinizing. Pipette the cells into a conical bottom 50 mL centrifuge tube and centrifuge 5 min×1000 rpm. • 2. Re-suspend the cell pellet in media, take a cell count, and then adjust the cell density using fresh media. • 3. Seed 6,000 cells into cell culture plate with 50 μL media. […] Incubate cell plate overnight in a 37° C., 5% CO2 incubator. • Compound titrations • 1. Use Tecan to complete the compound addition. Compounds start from 10 uM top, 3-fold dilution, and 10 doses. The final DMSO concentration is 0.8%. Dispensed 0.2 uM Trametinib as Min control. • 2. Incubate cell plate for 3 hrs in the incubator. • Detection with cisbio pERK HTRF kit • 1. […] At the end of the compound treatment, flick-off the media. • 3. Add 35 μL of lysis buffer per well using a Multidrop Combi. Then place on a plate agitator shaking at 300 rpm at 4° C. for 40 mins. • 4. Make up the HTRF antibody buffer. For each assay plate, mix 50 μL of d2-conjugate antibody with 950 μL of detection buffer. Similarly, mix 50 μL of Cryptate antibody with 950 μL of detection buffer. Then mix the two diluted antibodies together. • 5. Dispense 3.4 μL the antibody buffer to wells of an empty assay plate. Seal the plate and centrifuge plate 30 sec×1000 rpm. • 6. At the end of the 4° C. lysis, centrifuge the lysate plates 3 mins×1500 rpm. • 7. Use the Bravo to transfer 13.6 μL of lysate from cell culture plate to assay plate.
(§3) Then incubate assay plate for 2 hrs at room temperature. […] At the end of incubation, read plate on the Envision after centrifuging plate 30 sec× • 1000 rpm.

KRas G12S = KRas G12S (Homo sapiens, UniProt P01116, G12S); experiment: biochemical;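 also: TR-FRET displacement binding to KRas, read after one hour incubation at room temperature, IC50 from four-parameter fit of percent of control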
Sequence of KRas G12S (P01116 1-169 isoform P01116-2 G12S): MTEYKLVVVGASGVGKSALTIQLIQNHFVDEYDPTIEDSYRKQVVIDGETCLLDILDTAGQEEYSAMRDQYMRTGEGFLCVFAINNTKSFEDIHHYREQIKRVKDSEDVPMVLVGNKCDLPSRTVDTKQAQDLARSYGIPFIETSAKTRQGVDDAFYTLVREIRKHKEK
Description: as §1

pERK in H460 cells = experiment: Inhibition of KRas phosphorylation of ERK (Cisbio HTRF pERK assay); settings: Homo sapiens, NCI-H460, read-out: Inhibition (HTRF IC50) of KRas-mediated Phosphorylation of ERK, H460
pERK in A549 cells = experiment: as above; settings: Homo sapiens, A549, read-out: Inhibition (HTRF IC50) of KRas-mediated Phosphorylation of ERK, A549
Description: as §2, §3

Sequence of KRas G12A (P01116 1-169 isoform P01116-2 G12A): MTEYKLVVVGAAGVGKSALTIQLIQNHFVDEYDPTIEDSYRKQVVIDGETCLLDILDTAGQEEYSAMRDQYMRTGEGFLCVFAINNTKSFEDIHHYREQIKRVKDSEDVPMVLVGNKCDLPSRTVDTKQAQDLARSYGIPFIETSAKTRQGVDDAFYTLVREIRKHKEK

| IC50 (KRas G12A) [nM] | IC50 (pERK in ASPC1 cells) [nM] | IC50 (KRas G12V) [nM] | IC50 (KRas G12R) [nM] | IC50 (pERK in MKN1 cells) [nM] | IC50 (KRas WT) [nM] | IC50 (KRas G12D) [nM] | IC50 (KRas G12C) [nM] | IC50 (pERK in HCT116 cells) [nM] | IC50 (pERK in PSN1 cells) [nM] | IC50 (pERK in H358 cells) [nM] | IC50 (pERK in H727 cells) [nM] | IC50 (KRas G12S) [nM] | IC50 (pERK in H460 cells) [nM] | IC50 (pERK in A549 cells) [nM] | SMILES |
| --- | --- | --- | --- | --- | --- | --- | --- | --- | --- | --- | --- | --- | --- | --- | --- |
| ≤ 2 | 9 | ≤ 2 | ≤ 2 | 3 | ≤ 2 | ≤ 2 | ≤ 2 | 21 | 407 | 2 | 21 | ≤ 2 | 14 | 19 | CCc1c(F)ccc2cc(O)cc(-c3ncc4c(N5CCC[C@@](C)(O)C5)nc(OC[C@@]56CCCN5[C@H](COC(=O)N(C)C)CC6)nc4c3F)c12 [Example 314, ((3S,7aS)-7a-(((7-(8-ethyl-7-fluoro-3-hydroxynaphthalen-1-yl)-8-fluoro-4-((R)-3-hydroxy-3-methylpiperidin-1-yl)pyrido[4,3-d]pyrimidin-2-yl)oxy)methyl)hexahydro-1H-pyrrolizin-3-yl)methyl dimethylcarbamate] |
| ≤ 2 | 13 | ≤ 2 | ≤ 2 | 7 | ≤ 2 | ≤ 2 | ≤ 2 | 42 | 2120 | 4 | 28 | ≤ 2 | 38 | 38 | CCc1c(F)ccc2cc(O)cc(-c3ncc4c(N5CCC[C@@](C)(O)C5)nc(OC[C@]56CCCN5[C@H](COC(=O)N(C)C)CC6)nc4c3F)c12 [Example 313, ((3S,7aR)-7a-(((7-(8-ethyl-7-fluoro-3-hydroxynaphthalen-1-yl)-8-fluoro-4-((R)-3-hydroxy-3-methylpiperidin-1-yl)pyrido[4,3-d]pyrimidin-2-yl)oxy)methyl)hexahydro-1H-pyrrolizin-3-yl)methyl dimethylcarbamate] |
| ≤ 2 | 16 | ≤ 2 | ≤ 2 | 3 | ≤ 2 | ≤ 2 | ≤ 2 | 39 | 7760 | 7 | 30 | ≤ 2 | 71 | 99 | CCc1c(F)ccc2cc(O)cc(-c3ncc4c(N5CCOC[C@@](C)(O)C5)nc(OCC5(CN6CCCC6)CC5)nc4c3F)c12 [Example 321, (S)-4-(7-(8-ethyl-7-fluoro-3-hydroxynaphthalen-1-yl)-8-fluoro-2-((1-(pyrrolidin-1-ylmethyl)cyclopropyl)methoxy)pyrido[4,3-d]pyrimidin-4-yl)-6-methyl-1,4-oxazepan-6-ol] |
|  | 29 | ≤ 2 | ≤ 2 | 8 | ≤ 2 | ≤ 2 | ≤ 2 | 57 | 305 | 11 | 61 |  | 52 | 84 | CCc1c(F)ccc2cc(O)cc(-c3ncc4c(N5CCCC6(CNS(=O)(=O)N6)C5)nc(OC[C@@]56CCCN5C[C@H](F)C6)nc4c3F)c12 (stereo partly drawn) [Example 330, 7-(7-(8-ethyl-7-fluoro-3-hydroxynaphthalen-1-yl)-8-fluoro-2-(((2R,7aS)-2-fluorohexahydro-1H-pyrrolizin-7a-yl)methoxy)pyrido[4,3-d]pyrimidin-4-yl)-2-thia-1,3,7-triazaspiro[4.5]decane 2,2-dioxide] |
| ≤ 2 | 40 | ≤ 2 | ≤ 2 | 20 | ≤ 2 | ≤ 2 | ≤ 2 | 98 | 3930 | 985 | 46 | ≤ 2 | 287 | 197 | CCc1c(F)ccc2cc(O)cc(-c3ncc4c(N5CCCCCC5)nc(OC[C@@]56CCCN5C[C@H](F)C6)nc4c3F)c12 [Example 317, 4-(4-(azepan-1-yl)-8-fluoro-2-(((2R,7aS)-2-fluorohexahydro-1H-pyrrolizin-7a-yl)methoxy)pyrido[4,3-d]pyrimidin-7-yl)-5-ethyl-6-fluoronaphthalen-2-ol] |
|  | 48 | ≤ 2 | ≤ 2 | 12 |  | ≤ 2 |  | 826 | ≥ 10000 | 95 | 72 |  | 991 | 557 | CCc1c(F)ccc2cc(O)cc(-c3ncc4c(N5CCCn6nc(C(=O)NC)cc6C5)nc(OC[C@@]56CCCN5C[C@H](F)C6)nc4c3F)c12 [Example 339, 5-(7-(8-ethyl-7-fluoro-3-hydroxynaphthalen-1-yl)-8-fluoro-2-(((2R,7aS)-2-fluorotetrahydro-1H-pyrrolizin-7a(5H)-yl)methoxy)pyrido[4,3-d]pyrimidin-4-yl)-N-methyl-5,6,7,8-tetrahydro-4H-pyrazolo[1,5-a][1,4]diazepine-2-carboxamide] |
|  | 32 | ≤ 2 | ≤ 2 | 84 |  | ≤ 2 |  | 916 | 7680 | 52 | 59 |  | 878 | 379 | CN(C)C(=O)c1cc2n(n1)CCCN(c1nc(OC[C@@]34CCCN3C[C@H](F)C4)nc3c(F)c(-c4cc(O)cc5ccc(F)c(Cl)c45)ncc13)C2 [Example 427, 5-(7-(8-chloro-7-fluoro-3-hydroxynaphthalen-1-yl)-8-fluoro-2-(((2R,7aS)-2-fluorohexahydro-1H-pyrrolizin-7a-yl)methoxy)pyrido[4,3-d]pyrimidin-4-yl)-N,N-dimethyl-5,6,7,8-tetrahydro-4H-pyrazolo[1,5-a][1,4]diazepine-2-carboxamide] |
|  | 68 | ≤ 2 | ≤ 2 | 8 |  | ≤ 2 |  | 68 | 449 | 20 | 24 |  | 110 | 133 | C#Cc1c(F)ccc2cc(O)cc(-c3ncc4c(N5CCCC6(CC(O)C6)C5)nc(OC[C@@]56CCCN5C[C@H](F)C6)nc4c3F)c12 (stereo partly drawn) [Example 393, 6-(7-(8-ethynyl-7-fluoro-3-hydroxynaphthalen-1-yl)-8-fluoro-2-(((2R,7aS)-2-fluorohexahydro-1H-pyrrolizin-7a-yl)methoxy)pyrido[4,3-d]pyrimidin-4-yl)-6-azaspiro[3.5]nonan-2-ol] |
|  | 95 | 11 | 6 | 68 |  | 24 |  | 525 | 8290 | 117 | 407 |  | 245 | 261 | CCc1c(F)ccc2cc(O)cc(-c3ncc4c(N5CCOCC(C)(CO)C5)nc(OC[C@@]56CCCN5C[C@H](F)C6)nc4c3F)c12 (stereo partly drawn) [Example 496, 5-ethyl-6-fluoro-4-(8-fluoro-2-(((2R,7aS)-2-fluorotetrahydro-1H-pyrrolizin-7a(5H)-yl)methoxy)-4-(6-(hydroxymethyl)-6-methyl-1,4-oxazepan-4-yl)pyrido[4,3-d]pyrimidin-7-yl)naphthalen-2-ol] |
|  | 42 | ≤ 2 | ≤ 2 | 5 |  | ≤ 2 |  | 73 | 921 | 12 | 37 |  | 99 | 54 | Oc1cc(-c2ncc3c(N4CCCC5(CC(O)C5)C4)nc(OC[C@@]45CCCN4C[C@H](F)C5)nc3c2F)c2c(Cl)c(F)ccc2c1 (stereo partly drawn) [Example 425, 6-(7-(8-chloro-7-fluoro-3-hydroxynaphthalen-1-yl)-8-fluoro-2-(((2R,7aS)-2-fluorohexahydro-1H-pyrrolizin-7a-yl)methoxy)pyrido[4,3-d]pyrimidin-4-yl)-6-azaspiro[3.5]nonan-2-ol] |
